According to patent publication US20120071471A1, “NOVEL BENZOXAZINONE DERIVATIVES USEFUL FOR THE TREATMENT OF CNS DISORDERS” (NEUROSEARCH A/S, priority 2009, published 2012):

Legend:
[1] = De Marchi et al., Journal of Pharmaceutical Sciences 1971 60 (11); cited from earlier work
female NMRI mice = test: 6 Hz corneal stimulation psychomotor seizure model (anticonvulsant properties); format: in vivo; settings: Mus musculus, 32 mA, 3 s corneal stimulation, N=8/group, read-out: ED50 (dose that would give a 50% protection from seizures)
Experimental: The evaluation of the anticonvulsant properties was carried out in female NMRI mice (20-25 g, Taconic, Denmark). The mice were housed in groups (8 per cage according to weight) with food and water available ad libitum The environment was temperature (20±2° C.) and humidity (55±15%) controlled, and consisted of a 12:12 h light-dark cycle (lights on 06:00 h). The experiments were performed according to the Danish Committee for Experiments on Animals. Psychomotor seizures were induced via corneal stimulation (6 Hz, 0.2 ms rectangular pulses at 32 mA for 3 s) using a Grass S48 stimulator, constant current unit (CCU1) and isolation unit (SIU5), all driven by a stimulus generator (Master-8, AMPI, Israel).
The pads of the corneal stimulator were soaked in 0.9% saline. The mice were restrained during corneal stimulation and released immediately after and observed for the presence or absence of seizure activity.
The duration of any of these seizure variables is 10-75 seconds. In the presence of any of the seizure variables the mice was labelled 0% protection, and if none of the above, the mice was labelled 100% protection.
For screening purposes, the test compound was tested at 1 dose at 1 time-point. In the case of protection of 3 or more out of 8 mice, the compound were further evaluated in dose response (N=8/group). […]

melting point	SMILES	anticonvulsant activity [1]	ED50 (female NMRI mice)
–	NC(=O)CN1C(=O)OCc2ccccc21 [2-(2-oxo-4H-benzo[d][1,3]oxazin-1-yl)-acetamide]	biologically inactive	–
253.4 to 254.3 °C	NC(=O)CN1C(=O)OCc2cc(Br)ccc21 [Compound 1, 2-(6-bromo-2-oxo-4H-3,1-benzoxazin-1-yl)acetamide]	–	13 mg/kg
